Measured values reported in patent publication US7932241B2, “Pharmaceutical products comprising bisphosphonates” (Novartis AG, priority 2003, dated 2011).

Assay: physchem
Settings: pKa values
Experimental: Each 800 g of this solution (equivalent to 50 mg of zoledronic acid) are titrated with • (a) a solution of 0.500 g/100 mL trisodium citrate dihydrate in water for injection • (b) a solution of 0.500 g/100 mL anhydrous sodium acetate in water for injection • (c) a solution of 0.500 g/100 mL disodium tartrate dihydrate in water for injection • (d) a solution of 0.500 g/100 mL trisodium phosphate hexahydrate in water for injection • (e) a solution of 0.400 g/100 mL sodium hydroxide in water for injection
The pH value after each addition of 200 μL of base solution is recorded potentiometrically.

Compound `O=P(O)(O)C(O)(Cn1ccnc1)P(=O)(O)O` [zoledronic acid, 2-(imidazol-1yl)-1-hydroxyethane-1,1-diphosphonic acid] has a pKa of 5.9.
